For one test, the target named is T1, V1b (Homo sapiens, UniProt P47901).
T1 sequence (P47901 1-424): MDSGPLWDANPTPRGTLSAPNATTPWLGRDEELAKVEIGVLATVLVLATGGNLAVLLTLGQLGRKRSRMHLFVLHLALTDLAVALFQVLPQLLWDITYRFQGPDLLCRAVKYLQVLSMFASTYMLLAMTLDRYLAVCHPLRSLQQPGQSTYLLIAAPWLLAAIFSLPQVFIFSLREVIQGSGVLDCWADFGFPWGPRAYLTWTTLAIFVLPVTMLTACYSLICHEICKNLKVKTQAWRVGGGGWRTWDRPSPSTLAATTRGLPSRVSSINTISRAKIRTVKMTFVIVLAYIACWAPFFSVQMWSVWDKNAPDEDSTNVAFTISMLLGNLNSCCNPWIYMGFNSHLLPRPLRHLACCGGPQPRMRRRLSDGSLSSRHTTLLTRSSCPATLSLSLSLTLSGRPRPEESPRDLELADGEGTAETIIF
Briefly: In-vitro receptor binding assay (3H-arginine-8-vasopressin), V1b. As for the experimental part:
(A) In-Vitro Binding Assay […] The reaction plates are allowed to sit at room temperature for one hour. The samples are filtered through Unifilter GF/C plates (presoaked in 0.3 polyethyleneimine). The plates are washed 5 times with cold physiological saline containing 0.05% Tween 20. After drying, the bottom of the filter plates are sealed and 0.025 ml of Microscint-20 is added to each filter. The top of the plate is sealed, and the plate is counted. Non-specific binding is determined by the addition of 1.25 μM […]-vasopressin in those wells. % Inh. is calculated as follows: […]

In test [1] the target is T2, V1a (Homo sapiens, UniProt P37288). As to the kind of experiment: V1a vasopressin receptor functional activity (inhibition of vasopressin-induced intracellular calcium, FLIPR, V1a-HEK cells). It is filed as cell-based. Set-up: expressed in transfected cells. The following applies: HEK-293 cells transfected with human V1a receptor; vasopressin challenge. On the procedure:
[formula] (B) V1a Vasopressin Receptor Functional Activity
The V1a receptor is a G-protein coupled receptor, which upon activation triggers an increase in intracellular calcium mobilization. To evaluate compounds for their functional V1a receptor activity, HEK-293 cells were transfected with the human V1a receptor (V1a-HEK cells). HEK-293 cells were grown in DMEM (Dulbecco's modified Eagle Media) supplemented with 10% FBS and glutamine. HEK-cells were passed biweekly by trypsinization and seeded into 96 well plates at 33,000 cells per well. HEK-293 cells were transfected with human V1a receptor DNA using DMRIE-C reagent from Life Technologies. Stable lines were generated by selecting cells grown in culture media containing geneticin. After growing in Packard Clear-View black 96 well plates for 4-6 days, V1a-HEK cells were loaded with the calcium-sensitive fluorescence dye, FLUO-3 AM. Changes in cell fluorescence were quantitated using FLIPR (Fluorometric Imaging Plate Reader; Molecular Devices, Sunnyvale, Calif.). Test compounds were first added to the cells and the resulting changes in fluorescence measured to detect receptor agonistic activity. Five minutes later the cells were challenged with vasopressin to test compounds for their antagonistic activity. Receptor antagonists inhibit the ability of vasopressin to stimulate increases in intracellular fluorescence. IC50's were calculated.

For test [2], the target named is T2, V1a. Briefly: In-vitro receptor binding assay (3H-arginine-8-vasopressin), V1a. The gist of the method: (§1)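 Radioligand is 3H-arginine-8-vasopressin, incubated with receptor for one hour at room temperature, then filtered on GF/C plates and counted by scintillation. Non-specific binding was defined with 1.25 μM vasopressin, and results are given as % inhibition.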

The next test has as its target human V2 receptor (Homo sapiens, UniProt P30518). As to the kind of experiment: In-vitro receptor binding assay (3H-arginine-8-vasopressin), V2. The gist of the method:
as §1

Setting [3] is: @ 10 μM, read-out: Receptor Binding V1b (% Inh. @ concentration in μM).
[4] abbreviates: @ 0.1 μM, read-out: Receptor Binding V2 (% Inh. @ concentration in μM).

T2 sequence (P37288 whole entry): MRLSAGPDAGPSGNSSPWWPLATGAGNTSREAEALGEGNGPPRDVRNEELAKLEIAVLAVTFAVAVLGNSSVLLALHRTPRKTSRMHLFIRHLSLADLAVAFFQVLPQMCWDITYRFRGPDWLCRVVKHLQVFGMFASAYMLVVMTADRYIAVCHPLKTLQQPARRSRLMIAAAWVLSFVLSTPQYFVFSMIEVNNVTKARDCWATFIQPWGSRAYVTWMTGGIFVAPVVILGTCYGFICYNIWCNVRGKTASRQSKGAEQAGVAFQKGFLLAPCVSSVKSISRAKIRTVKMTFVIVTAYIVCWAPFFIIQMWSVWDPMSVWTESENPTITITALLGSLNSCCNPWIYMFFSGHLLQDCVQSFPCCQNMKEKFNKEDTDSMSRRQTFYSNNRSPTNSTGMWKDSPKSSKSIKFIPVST

On to `CN(C)CCNC(=O)C1=CC2(CC1)CCN(C(=O)c1ccc(NC(=O)c3ccccc3-c3ccccc3)cc1)c1ccccc1C2` (single isomer, unassigned) [Compound 21], for which the inhibition at 10 µM on V1b (setting [3]) was 7%. For the same molecule, the IC50 on V1a [1] is 0.008 µM; on V1a [2] it was 0.181 µM; at human V2 receptor, 0.44 µM.

As to `O=C(NCCO)C1=CC2(CC1)CCN(C(=O)c1ccc(NC(=O)c3ccccc3F)cc1)c1ccccc1C2` (stereo not shown) [Compound 8], at V1b (@ 0.1 μM, read-out: Receptor Binding V1b (% Inh. @ concentration in μM)), the inhibition at 0.1 µM worked out at 41%. Further, the 50% inhibitory concentration (IC50) turned out to be 0.099 µM at V1a [1] and 0.004 µM on V1a [2].

Regarding `CN(C)CCNC(=O)C1=CC2(CC1)CCN(C(=O)c1ccc(NC(=O)c3ccccc3-c3ccccc3)cc1)c1ccccc1C2` (stereo not shown) [Compound 9, 4-(2-Phenylbenzoyl-4-aminobenzoyl)-3′-[2-(N,N-dimethylaminoethylcarbonyl)]-4-aza-[6,4]-spiro-[5,6]-benzoundec-2′-ene], the inhibition at 10 µM at V1b (setting [3]) stood at 12%. The IC50 on V1a [1] was 0.004 µM; at V1a [2], 0.005 µM; at human V2 receptor it was 0.011 µM.

Turning to `CN(C)CCNC(=O)C1=CC2(CC1)CCN(C(=O)c1ccc(NC(=O)c3ccccc3F)cc1)c1ccccc1C2` (stereo not shown) [Compound 16, 4-(2-Fluorobenzoyl-4-aminobenzoyl)-3′-[2-(N,N-dimethylaminoethylcarbonyl)]-4-aza-[6,4]-spiro-[5,6]-benzoundec-2′-ene], on V1b (setting [3]), the inhibition at 10 µM stood at 8%. In addition, the IC50 was found to be 0.126 µM at V1a [1] and 0.008 µM at V1a [2]. Further, at human V2 receptor (setting [4]), the inhibition at 0.1 µM was 17%.

Consider `O=C(NCCN1CCCCC1)C1=CC2(CC1)CCN(C(=O)c1ccc(NC(=O)c3ccccc3F)cc1)c1ccccc1C2` (stereo not shown) [Compound 18], for which the IC50 came out at 0.95 µM on V1a [1] and 0.007 µM on V1a [2]. On human V2 receptor (setting [4]), the inhibition at 0.1 µM is 23%.

Turning to `O=C(NCCN1CCCC1)C1=CC2(CC1)CCN(C(=O)c1ccc(NC(=O)c3ccccc3F)cc1)c1ccccc1C2` (stereo not shown) [Compound 19], the “Receptor Binding V1b (% Inh. @ concentration in μM)” value at V1b (@ 0.1 μM) is 22% @ 0.1. Also, the results for the IC50 at V1a [1] and on V1a [2] were 0.155 µM and 0.008 µM, respectively.

Consider `CN(C)CCNC(=O)C1=C[C@]2(CC1)CCN(C(=O)c1ccc(NC(=O)c3ccccc3-c3ccccc3)cc1)c1ccccc1C2` [Compound 20, (S)-4-(2-phenylbenzoyl-4-aminobenzoyl)-3′-(2-(N,N-dimethylaminoethylaminocarbonyl))-4-aza-[6,4]-spiro-[5,6]-benzoundec-2′-ene], for which the “Receptor Binding V1b (% Inh. @ concentration in μM)” value at V1b (@ 10 μM) is recorded as 13% @ 10. Further, the half-maximal inhibitory concentration (IC50) at V1a [1] was determined as 0.002 µM; at V1a [2] it was 0.003 µM; on human V2 receptor, 0.016 µM.

For the molecule `CCNc1ccc(C(=O)N2CCC3(CCCCC3)Cc3ccccc32)cc1` [Compound 26], the results for the IC50 on V1a [1], on V1a [2] and at human V2 receptor were 0.105 µM, 0.16 µM and 10 µM, respectively.

With `O=C(Nc1ccccc1)c1ccc(C(=O)N2CCCC3(C=CCCC3)c3ccccc32)cc1` (stereo not shown) [Compound 27], the IC50 on V1a [1] turned out to be 0.008 µM; on V1a [2], 0.1 µM; at human V2 receptor it was 0.27 µM.

For the molecule `COc1ccc(C(=O)N2CCC3(C=CCCC3)Cc3ccccc32)cc1` (stereo not shown) [Compound 37], the IC50 came to 0.096 µM on V1a [1] and 0.11 µM at V1a [2]. Moreover, the “Receptor Binding V2 (% Inh. @ concentration in μM)” value at human V2 receptor (@ 10 μM) was 37% @ 10.

As to `O=C(c1ccc(Cl)c(Cl)c1)N1CCC2(C=CCCC2)Cc2ccccc21` (stereo not shown) [Compound 48], the IC50 at V1a [1] is over 1 µM. Moreover, the inhibition at 10 µM was 33% at V1a [2] (@ 10 μM, read-out: Receptor Binding V1a (% Inh. @ concentration in μM)) and 16% on human V2 receptor (@ 10 μM, read-out: Receptor Binding V2 (% Inh. @ concentration in μM)).

For the molecule `CCCCOc1ccc(C(=O)N2CCC3(C=CCCC3)Cc3ccccc32)cc1` (stereo not shown) [Compound 53], the results for the IC50 at V1a [1], on V1a [2] and on human V2 receptor were 0.104 µM, 0.06 µM and 8 µM, respectively.

Consider `COC(=O)c1ccc(C(=O)N2CCC3(C=CCCC3)Cc3ccccc32)cc1` (stereo not shown) [Compound 54, 4-(4-Carbomethoxybenzoyl)-4-aza-[6,5]-spiro-[5,6]-benzododec-2′-ene], for which the results for the concentration for half-maximal inhibition (IC50) on V1a [1], at V1a [2] and on human V2 receptor were 0.067 µM, 0.33 µM and 10 µM, respectively.

Regarding `O=C(Nc1ccc(C(=O)N2CCC3(C=CCCC3)Cc3ccccc32)cc1)c1ccccc1-c1ccccc1` (stereo not shown) [Compound 66, 4-(2-Phenylbenzoyl-4-aminobenzoyl)-4-aza-[6,5]-spiro-[5,6]-benzododec-2′-ene], the 50% inhibitory concentration (IC50) on V1a [1] turned out to be 0.025 µM; on V1a [2] it was 0.83 µM; at human V2 receptor, 0.19 µM.

Consider `Cc1ccccc1C(=O)Nc1ccc(C(=O)N2CCC3(C=CCCC3)Cc3ccccc32)cc1` (stereo not shown) [Compound 69], for which the IC50 on V1a [1] was found to be 0.14 µM; at V1a [2] it was 0.01 µM; at human V2 receptor it was 0.07 µM.

`Cc1cc(F)ccc1C(=O)Nc1ccc(C(=O)N2CCC3(C=CCCC3)Cc3ccccc32)cc1` (stereo not shown) [Compound 99]: the values for the IC50 on V1a [1] and at V1a [2] were 0.08 µM and 0.041 µM, respectively. Besides, the inhibition at 1 µM at human V2 receptor (@ 1 μM, read-out: Receptor Binding V2 (% Inh. @ concentration in μM)) was 35%.

Consider `Cc1cc(F)ccc1C(=O)Nc1ccc(C(=O)N2CCC3(C=CCCC3)Cc3ccccc32)cc1` (stereo not shown) [Compound 100], for which the half-maximal inhibitory concentration (IC50) at V1a [1] turned out to be 0.05 µM; on V1a [2], 0.008 µM; on human V2 receptor, 0.067 µM.

Consider `O=C(Nc1ccc(C(=O)N2CCC3(C=CCCC3)Cc3ccccc32)cc1)c1ccccc1F` (stereo not shown) [Compound 101, 4-(2-Fluorobenzoyl-4-aminobenzoyl)-4-aza-[6,5]-spiro-[5,6]-benzododec-2′-ene], for which the results for the half-maximal inhibitory concentration (IC50) at V1a [1], at V1a [2] and on human V2 receptor were 0.06 µM, 0.01 µM and 0.55 µM, respectively.

As to `O=C(Nc1ccc(C(=O)N2CCC3(C=CCCC3)Cc3ccccc32)c(Cl)c1)c1ccccc1F` (stereo not shown) [Compound 110], the 50% inhibitory concentration (IC50) on V1a [1] was found to be 2.57 µM; on V1a [2] it was 0.9 µM; on human V2 receptor, 1 µM.

At V1b, “(R)-4-(2-fluorophenylbenzoyl-4-aminobenzoyl)-3′-(2-(N,N-dimethylaminoethylaminocarbonyl))-4-aza-[6,4]-spiro-[5,6]-benzoundec-2′-ene [Compound 23]” had an IC50 of 13.7 µM. The “Receptor Binding V1a (% Inh. @ concentration in μM)” value at V1a [2] (@ 0.1 μM) is on record as 15% @ 0.1. Further, the “Receptor Binding V2 (% Inh. @ concentration in μM)” value on human V2 receptor (@ 0.1 μM) came to 1% @ 0.1.

“(S)-4-(2-fluorophenylbenzoyl-4-aminobenzoyl)-3′-(2-(N,N-dimethylaminoethylaminocarbonyl))-4-aza-[6,4]-spiro-[5,6]-benzoundec-2′-ene [Compound 22]”: at V1b (@ 10 μM), the “Receptor Binding V1b (% Inh. @ concentration in μM)” value was found to be 17% @ 10. The same molecule had a half-inhibitory concentration (IC50) on V1a [2] of 0.003 µM. For the same molecule, the “Receptor Binding V2 (% Inh. @ concentration in μM)” value at human V2 receptor (@ 0.1 μM) amounted to 15% @ 0.1.

The values above are taken from patent US7691844B2, “Nonpeptide substituted spirobenzoazepines as vasopressin antagonists” (Ortho-McNeil Pharmaceutical, Inc., priority 2000, dated 2010).
